# Data: PMC9321718 (Pharmaceuticals, 2022)
# Entries after “also recorded” stand apart in the source; their conditions may differ.
# Tests used:
# B. subtilis = assay: Synergy of adjuvant-MCD with Lev-MCD, growth inhibition zones in agar; format: cell-based, Bacillus subtilis; conditions: for D, diameter of bacterial inhibition zone surrounding Lev–MCD with APAB-MCD: Lev-MCD + X-MCD (1:2), ±0.5; for ϕLev = (D/DLev)^2: ±0.1
# Method: (§1) We obtained complex formulations containing adjuvants-MCD and Lev-MCD. These complexes were referred to as enhanced Lev. The synergy effect was studied at a constant concentration of Lev and a variable concentration of an enhancer. […] Based on the D/DLev ratio, the effectiveness of cooperative antibacterial action (ϕ) of the adjuvant and Lev was calculated. The fractional inhibitory concentration (FIC) parameter was introduced: at a fixed Lev concentration, the FIC of adjuvant corresponds to the minimum fractional adjuvant concentration at which the antibacterial effect was still manifest (MICadjuvant in the presence of Lev). The fractional inhibitory concentration index (FICI) characterizes the ratio of the active Lev and adjuvant concentrations to the MIC values of these substances individually: FICI=[Lev]/MIC(Lev)[…][adjuvant]/MIC(adjuvant) (see Section 3).
# (§2) The FICI was interpreted as: synergism (<0.35), additivity (0.35–0.75), indifference (0.75–1.4), or antagonism (>1.4). FICI is designed to determine the type of Lev interaction with adjuvants.
# (§3) The study of the antibacterial effect of Lev and adjuvants was carried out by (a) agar diffusion test and (b) broth micro-dilution method. (a) A measured 500 µL of 100-fold culture dilution was evenly distributed over a solid nutrient medium (LB, pH 7.2) on a Petri dish. After 20 min, agar disks with a diameter of 9 mm were removed from the cups and 50 µL of the test samples were placed in the formed wells at the required concentration in a sterile PBS buffer (see Section 3.3 (2)). After 30 min, Petri dishes were placed in a 37 °C thermostat. […] Minimum inhibitory concentrations (MICs) are determined as the infimum of multiple concentrations of an antimicrobial that inhibits the visible growth of a microorganism after overnight incubation. (b) According to the standard broth micro-dilution method, 200 µL of the overnight culture (5 × 10^6 CFU) was placed into a 96 micro-titer plate wells. Then 50 µL of tested samples was added. The range of tested Lev concentration was 4–200 ng/mL, adjuvants concentration was in the range of 0.008–2 mg/mL. […] The dependence of CFU (determined by A600) on the concentration of Lev, APAB or terpenoid (briefly X) was approximated according to the Boltzmann equation (Origin software): CFU = (control CFU)/(1 + exp(([X] − MIC50)/constant value)). […] In other words, the concentration at which the ordinate value (CFU) is equal to 50 or 10% of the control sample minus the background.
# (§4) The FICI was interpreted as: synergism (<0.35), additivity (0.35–0.75), indifference (0.76–1.4), or antagonism (>1.4). The essence of this expression is to calculate the average change in the effective concentration compared to MIC. Note that the most important parameter corresponds to a decrease in MIC of Lev. However, FICI is designed to determine the type of interaction Lev with adjuvants.
# E. coli = assay: as above; format: cell-based, Escherichia coli; conditions: for D, diameter of bacterial inhibition zone surrounding Lev–MCD with APAB-MCD: Lev-MCD + X-MCD (1:2), ±0.5; for ϕLev = (D/DLev)^2: ±0.1; for FICI: ±15%; for increase in Lev antibacterial activity / efficacy: growth inhibition diameter measurement in agar, inclusion complexes with MCD
# Method: as §1, §2, §3, §4
# [1] = Formation of inclusion complexes with MCD (UV spectroscopy, Hill linearization); format: physicochemical; conditions: MCD; for EE, % / LC, %: C(MCD) = 0.01 M, pH 6.2, 22 °C; for n: Xaq + n MCDaq ⇌ X·nMCDaq, 5 mM sodium phosphate buffer pH 6.2, 22 °C
# Method: To optimize the system composition, similar experiments were carried out on the formation of EG and apiol inclusion complexes with HPCD (Figure S1). […] According to these changes, the dissociation constants of the EG–HPCD and apiol–HPCD complexes (Figure S2) were calculated by Hill’s equation (Table 1). […] The physicochemical parameters of the interaction of APAB and terpenoids (X) with CD were studied by determining the concentration of substances in the aqueous fraction ([APAB] + [APAB-MCD]) according to the calibration dependence (Figure 1C) for systems with a constant amount of the essential oil component X and the concentration gradient MCD (Table 1). Theta (θ) is a fraction of the bound substance X:θ = [X-MCD]/([X-MCD] + [X]) and was calculated based on the dependence of the absorption intensity X on the MCD concentration in the system in the form of a sigmoidal Hill curve with subsequent linearization (Section 3, Section 3.3 and Section 3.4).
# The molar excess of CD varied from 0.04 to 10). Further, the complexes were incubated for 1 h at 37 °C and then centrifuged ([…], 15 min, Eppendorf tubes) to separate the insoluble fractions. Complexes were studied by UV and FTIR spectroscopy.
# UV spectra of solutions (point 3.3.1) were recorded on the AmerSham Biosciences UltraSpec 2100 pro device (USA) three times in the range of 200–400 nm in a quartz cell Hellma 100–QS with an optical path of 1 cm. Background spectrum (5 mM sodium phosphate buffer (pH 6.2) with 50% EtOH) was subtracted as a blank.
# (1) Calculation of the dissociation constants X–MCD and X–HPCD, where X is a “guest” compound, considering the equilibrium: Xaq + n MCDaq ↔ X·nMCDaq, where Kd = [MCDaq]^n · [Xaq]/[X·nMCDaq].
# First, fitting of the curves of change of the analytical signal ξ (peak intensity or peak position) versus concentration of the MCD or HPCD or was carried out using the Hill equations: (1) ξ = ξ∞ · [MCD]^n/([MCD]^n + K^n), where ξ∞—horizontal asymptote; (2) ξ = ξ0 + (ξ∞–ξ0) · [MCD]^n/([MCD]^n + K^n). Second, calculation n and Kd values by Hill’s linearization in n-binding site model: lg (θ/(1 – θ)) = n · lg [L] – lg Kd, where θ = |(ξ – ξ0)/(ξ∞ − ξ0)|is a fraction of the bound substance. N in Hill equation—number of drug molecules per CD torus.
# Calculations for the following items are performed when [MCD] = 0.01 M.
# physchem = conditions: 22 °C, pH 6.2, water
# Method: (3) Solubility of X in water C0 = [Xaq] = A/(ε · l) was determined by UV absorbance after centrifugation of samples (10 min, 10,000× g). l = 1 cm. ε—molar absorbance coefficient (Figure 1C).
smiles,measurement,setting,value
"C=CCc1ccc(O)c(OC)c1 [Eugenol, 4-allyl-2-methoxyphenol]",FICadjuvant,"B. subtilis; B. subtilis, CLev 0.4 μg/mL",0.10 ± 0.01 mg/mL
same,Type of Interaction between Lev and X,"B. subtilis; B. subtilis, CLev 0.4 μg/mL",Synergism (synergism (<0.35))
same,"D, diameter of bacterial inhibition zone surrounding Lev–MCD with APAB-MCD","B. subtilis; B. subtilis, CLev 0.4 μg/mL",14.5 mm
same,ϕLev = (D/DLev)^2,"B. subtilis; B. subtilis, CLev 0.4 μg/mL",1.5
same,FICI,"B. subtilis; B. subtilis, CLev 0.4 μg/mL, ±15%",0.16
same,FICadjuvant,"B. subtilis; B. subtilis, CLev 0.7 μg/mL",0.2 ± 0.02 mg/mL
same,Type of Interaction between Lev and X,"B. subtilis; B. subtilis, CLev 0.7 μg/mL",Additivity (additivity (0.35–0.75))
same,"D, diameter of bacterial inhibition zone surrounding Lev–MCD with APAB-MCD","B. subtilis; B. subtilis, CLev 0.7 μg/mL",16 mm
same,ϕLev = (D/DLev)^2,"B. subtilis; B. subtilis, CLev 0.7 μg/mL",1.2
same,FICI,"B. subtilis; B. subtilis, CLev 0.7 μg/mL, ±15%",0.56
same,FICadjuvant,"B. subtilis; B. subtilis, CLev 1.5 μg/mL",0.10 ± 0.01 mg/mL
same,Type of Interaction between Lev and X,"B. subtilis; B. subtilis, CLev 1.5 μg/mL",Additivity (additivity (0.35–0.75))
same,"D, diameter of bacterial inhibition zone surrounding Lev–MCD with APAB-MCD","B. subtilis; B. subtilis, CLev 1.5 μg/mL",19 mm
same,ϕLev = (D/DLev)^2,"B. subtilis; B. subtilis, CLev 1.5 μg/mL",1.2
same,FICI,"B. subtilis; B. subtilis, CLev 1.5 μg/mL, ±15%",0.60
same,type of interaction with Lev,B. subtilis; Gram-positive cells (B. subtilis),additivity
same,"D, diameter of bacterial inhibition zone surrounding Lev–MCD with APAB-MCD","E. coli; E. coli, CLev 0.03 μg/mL",14 mm
same,ϕLev = (D/DLev)^2,"E. coli; E. coli, CLev 0.03 μg/mL",2.0
same,FICI,"E. coli; E. coli, CLev 0.03 μg/mL",0.30
same,"D, diameter of bacterial inhibition zone surrounding Lev–MCD with APAB-MCD","E. coli; E. coli, CLev 0.05 μg/mL",17 mm
same,ϕLev = (D/DLev)^2,"E. coli; E. coli, CLev 0.05 μg/mL",2.9
same,FICI,"E. coli; E. coli, CLev 0.05 μg/mL",0.08
same,"D, diameter of bacterial inhibition zone surrounding Lev–MCD with APAB-MCD","E. coli; E. coli, CLev 0.1 μg/mL",20 mm
same,ϕLev = (D/DLev)^2,"E. coli; E. coli, CLev 0.1 μg/mL",3.3
same,FICI,"E. coli; E. coli, CLev 0.1 μg/mL",0.10
same,"D, diameter of bacterial inhibition zone surrounding Lev–MCD with APAB-MCD","E. coli; E. coli, CLev 0.15 μg/mL",15 mm
same,ϕLev = (D/DLev)^2,"E. coli; E. coli, CLev 0.15 μg/mL",2.3
same,FICI,"E. coli; E. coli, CLev 0.15 μg/mL",0.05
same,"D, diameter of bacterial inhibition zone surrounding Lev–MCD with APAB-MCD","E. coli; E. coli, CLev 0.5 μg/mL",26 mm
same,ϕLev = (D/DLev)^2,"E. coli; E. coli, CLev 0.5 μg/mL",1.3
same,FICI,"E. coli; E. coli, CLev 0.5 μg/mL",1.3
same,amplification effect of adjuvant,"E. coli; E. coli, at minimal Lev concentrations",3 fold
same,MICLev in the presence of adjuvant,"E. coli; E. coli, reduced from 0.10 μg/mL",0.015 to 0.02 µg/mL
same,decrease of Lev MIC,"E. coli; conclusions, bacterium not stated",3–4 times
same,increase in Lev antibacterial activity / efficacy,E. coli; listed as EG,over three-fold; also recorded: two–three-fold
same,"EE, %",[1],39 ± 3%
same,"LC, %",[1],10 ± 1%
same,n,[1],1.32 ± 0.08
same,solubility,physchem,8.2 ± 0.2 mM
CC1CCC(C(C)C)C(O)C1 (centres unmarked) [Menthol],FICadjuvant,"B. subtilis; B. subtilis, CLev 0.5 μg/mL",0.17 ± 0.01 mg/mL
same,Type of Interaction between Lev and X,"B. subtilis; B. subtilis, CLev 0.5 μg/mL",Synergism (synergism (<0.35))
same,"D, diameter of bacterial inhibition zone surrounding Lev–MCD with APAB-MCD","B. subtilis; B. subtilis, CLev 0.5 μg/mL",18.5 mm
same,ϕLev = (D/DLev)^2,"B. subtilis; B. subtilis, CLev 0.5 μg/mL",2.4
same,FICI,"B. subtilis; B. subtilis, CLev 0.5 μg/mL, ±15%",0.11
same,FICadjuvant,"B. subtilis; B. subtilis, CLev 1 μg/mL",0.17 ± 0.01 mg/mL
same,Type of Interaction between Lev and X,"B. subtilis; B. subtilis, CLev 1 μg/mL",Synergism (synergism (<0.35))
same,"D, diameter of bacterial inhibition zone surrounding Lev–MCD with APAB-MCD","B. subtilis; B. subtilis, CLev 1 μg/mL",18 mm
same,ϕLev = (D/DLev)^2,"B. subtilis; B. subtilis, CLev 1 μg/mL",1.3
same,FICI,"B. subtilis; B. subtilis, CLev 1 μg/mL, ±15%",0.23
same,efficiency parameter ϕ,"B. subtilis; B. subtilis, adjuvant-MCD with Lev-MCD",2.4
same,FICI,"B. subtilis; B. subtilis, with Lev",0.08–0.11
same,decrease of MICLev in the presence of adjuvant,E. coli; E. coli,up to twice
same,"D, diameter of bacterial inhibition zone surrounding Lev–MCD with APAB-MCD","E. coli; E. coli, CLev 0.1 μg/mL",13.5 mm
same,ϕLev = (D/DLev)^2,"E. coli; E. coli, CLev 0.1 μg/mL",1.7
same,FICI,"E. coli; E. coli, CLev 0.1 μg/mL",0.02
same,"D, diameter of bacterial inhibition zone surrounding Lev–MCD with APAB-MCD","E. coli; E. coli, CLev 0.15 μg/mL",14 mm
same,ϕLev = (D/DLev)^2,"E. coli; E. coli, CLev 0.15 μg/mL",2.0
same,FICI,"E. coli; E. coli, CLev 0.15 μg/mL",0.15
same,increase in Lev antibacterial activity / efficacy,E. coli,two–three-fold
same,"EE, %",[1],91 ± 6%
same,"LC, %",[1],11 ± 1%
same,"EE, %",[1]; listed as menthol,more than 90%
same,n,[1],1.1 ± 0.1
same,solubility,physchem,0.23 ± 0.04 mM
C=CCc1cc(OC)c2c(c1OC)OCO2 [Apiol],decrease of MICLev in the presence of adjuvant,E. coli; E. coli,up to twice
same,"D, diameter of bacterial inhibition zone surrounding Lev–MCD with APAB-MCD","E. coli; E. coli, CLev 0.1 μg/mL",14.5 mm
same,ϕLev = (D/DLev)^2,"E. coli; E. coli, CLev 0.1 μg/mL",1.6
same,FICI,"E. coli; E. coli, CLev 0.1 μg/mL",0.35
same,"D, diameter of bacterial inhibition zone surrounding Lev–MCD with APAB-MCD","E. coli; E. coli, CLev 0.15 μg/mL",14 mm
same,ϕLev = (D/DLev)^2,"E. coli; E. coli, CLev 0.15 μg/mL",2.0
same,FICI,"E. coli; E. coli, CLev 0.15 μg/mL",0.20
same,"EE, %",[1],20 ± 2%
same,"LC, %",[1],11 ± 1%
same,n,[1],1.6 ± 0.2
